The source of these data is patent US12190997B2, “Genetically altered LysM receptors with altered agonist specificity and affinity” (Aarhus Universitet, priority 2018, dated 2025).

One assay relates to HvRLK4 ectodomain. Nature of the assay: BLI binding of HvRLK4 ectodomain to ligands. The arrangement: species or system Hordeum vulgare. The settings on record: FIGS. 16E, 16G-16H. Here is the method:
(§1) Expression and purification of ectodomain: The HvRLK10 ectodomain (residues 25-231; SEQ ID NO:66) was codon-optimized for insect cell expression (Genscript, Piscataway, USA) and cloned into the pOET4 baculovirus transfer vector (Oxford Expression Technologies). The native HvRLK10 signal peptide was replaced with the gp64 signal peptide (SEQ ID NO:59) to facilitate secretion and a hexa-histidine (6×HIS; SEQ ID NO:61) tag was added to the C-terminus (HvRLK10-ecto (25-231), N-term gp64, C-term 6His=SEQ ID NO:65). The HvRLK4 ectodomain (residues 27-228; SEQ ID NO:68) was codon-optimized for insect cell expression (Genscript, Piscataway, USA) and cloned into the pOET4 baculovirus transfer vector (Oxford Expression Technologies). […]
(§2) Biolayer interferometry (BLI): Binding of HvRLK10 ectodomain or HvRLK4 ectodomain to ligands was measured on an Octet RED 96 system (Pall ForteBio). […] Equilibrium dissociation constants derived from the steady-state were determined by applying a non-linear regression (one site, specific binding) to the response at equilibrium plotted against the protein concentration. Kinetic parameters were determined by non-linear regression (association followed by dissociation) on the subtracted data.

The subject of assay [1] is ectodomain where LysM2 from LjLYS11 was replaced with LysM2 from LjNFR5. The assay is described as follows: BLI binding of LjLYS11 ectodomain with LysM2 replaced by LysM2 from LjNFR5. Also on record: species or system Lotus japonicus. The note with it: FIG. 15D. The method, then: Biolayer interferometry (BLI): Binding of LjLYS11 ectodomain and domain-swapped versions of LjLYS11 ectodomain to ligands was measured on an Octet RED 96 system (Pall ForteBio). The ligands used were CO5 chitin oligomer (corresponding to the backbone of S. meliloti LCO-V), M. loti LCO, and S. meliloti LCO. S. meliloti LCO consists of a tetrameric/pentameric N-acetylglucosamine backbone that is O-sulfated on the reducing terminal residue, O-acetylated on the non-reducing terminal residue, and mono-N-acylated by unsaturated C16 acyl groups. M. loti LCO is a pentameric N-acetylglucosamine with a cis-vaccenic acid and a carbamoyl group at the non-reducing terminal residue together with a 2,4-O-acetylfucose at the reducing terminal residue. Biotinylated ligand conjugates were immobilized on streptavidin biosensors (kinetic quality, Pall ForteBio) at a concentration of 125-250 nM for 5 minutes. Data analysis was performed in GraphPad Prism 6 software (GraphPad Software, Inc.). Equilibrium dissociation constants derived from the steady-state were determined by applying a non-linear regression (one site, specific binding) to the response at equilibrium plotted against the protein concentration. Kinetic parameters were determined by non-linear regression (association followed by dissociation) on the subtracted data. […]
For orientation: BLI is a label-free optical method that tracks binding on a fibre tip over time.

For the next assay, the system named is HvRLK10 ectodomain. The assay is described as follows: BLI binding of HvRLK10 ectodomain to ligands. The note with it: FIGS. 16A, 16C-16D. The arrangement: species or system Hordeum vulgare. The method, then:
as §1, §2

The target in another assay is LjLYS11 ectodomain (Lotus japonicus, UniProt D3KTZ8). The assay is described as follows: BLI binding of LjLYS11 ectodomain to ligands. The settings on record: FIG. 15C. The method, then: LjLYS11 ectodomain production and purification: The LjLYS11 ectodomain (residues 26-234; SEQ ID NO:60) was codon-optimized for insect cell expression (Genscript, Piscataway, USA) and cloned into the pOET4 baculovirus transfer vector (Oxford Expression Technologies). The native LjLYS11 signal peptide was replaced with the gp64 signal peptide (SEQ ID NO:59) to facilitate secretion and a hexa-histidine (6×His; SEQ ID NO:61) tag was added to the C-terminus (LjLYS11-ecto (26-234), N-term gp64, C-term 6His=SEQ ID NO:56). Recombinant baculoviruses were produced in Sf9 cells (Spodoptera frugiperda) using the FlashBac Gold kit (Oxford Expression technologies) according to the manufacturer's instructions with Lipofectin (ThermoFisher Scientific) as a transfection reagent. Protein expression was performed as follows. […]
LjLYS11 ectodomain, sequence (D3KTZ8 entry or part of it): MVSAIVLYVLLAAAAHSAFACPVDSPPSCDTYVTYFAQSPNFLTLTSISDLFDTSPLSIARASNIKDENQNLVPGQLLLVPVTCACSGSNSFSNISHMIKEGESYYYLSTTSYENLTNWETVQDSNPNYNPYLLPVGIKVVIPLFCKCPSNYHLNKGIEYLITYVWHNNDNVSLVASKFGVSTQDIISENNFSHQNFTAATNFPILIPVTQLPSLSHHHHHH
Biolayer interferometry (BLI): Binding of LjLYS11 ectodomain and domain-swapped versions of LjLYS11 ectodomain to ligands was measured on an Octet RED 96 system (Pall ForteBio). […] Equilibrium dissociation constants derived from the steady-state were determined by applying a non-linear regression (one site, specific binding) to the response at equilibrium plotted against the protein concentration. Kinetic parameters were determined by non-linear regression (association followed by dissociation) on the subtracted data. […]

For assay [2], the system named is L. japonicus nfr1-1 mutant roots. Nature of the assay: Nodulation complementation of L. japonicus nfr1-1 mutants with LjNFR1/MtLYK3 chimeras, M. loti R7A. Type of assay: in vivo, Lotus japonicus. The settings on record: 35 days post inoculation with M. loti R7A. From the text: Complementation assay: Construct assembly, plant growth conditions, hairy root transformations, nodulation and ROS assays were generally conducted as described in Bozsoki et al. (2017) (Bozsoki Z, Cheng J, Feng F, Gysel K, Vinther M, Andersen K R, Oldroyd G, Blaise M, Radutoiu S, Stougaard J (2017) Receptor-mediated chitin perception in legume roots is functionally separable from Nod factor perception. Proc Natl Acad Sci 114: E8118-E8127). A general schematic of the construct is provided in FIG. 3, whereby the pNFR1 promoter was used to drive the chimeric constructs. The tested chimeric receptors in Lotus are depicted as block diagrams below the graph in FIG. 7, where NFR1 domains are shown in white and LYK3 domains are shown in grey, and transverse lines across the block depicting the LysM1 domain indicate sections II and IV. […] Nodules were counted on hairy root transformed L. japonicus nfr1-1 mutant roots 35 days post inoculation with M. loti R7Å. M. loti R7A is the cognate N-fixing bacterial strain for L. japonicus, and is not recognized by M. truncatula.

As for `CC(=O)N[C@H]1[C@H](O[C@H]2[C@H](O)[C@@H](NC(C)=O)[C@H](O[C@H]3[C@H](O)[C@@H](NC(C)=O)C(O)O[C@@H]3CO)O[C@@H]2CO)O[C@H](CO)[C@@H](O[C@@H]2O[C@H](CO)[C@@H](O[C@@H]3O[C@H](CO)[C@@H](O)[C@H](O)[C@H]3NC(C)=O)[C@H](O)[C@H]2NC(C)=O)[C@@H]1O` (some centres unmarked) [CO5], the binding result in the assay on HvRLK4 ectodomain was “did not bind”; in the assay on HvRLK10 ectodomain, “did not bind”; on LjLYS11 ectodomain, “able to bind”. Further, the “binding compared with unmodified LjLYS11 ectodomain” value in assay [1] is listed as “loss of ability to bind”.

B1: LjCERK6: unaltered Lotus CERK6 chitin receptor protein (SEQ ID NO:34), negative control (protein)
chain: MEHPRLGFPITLLLFSFILLPSTSQSKCTHGCALAQASYYLLNGSNLTYISEIMQSSLLTKPEDIVSYNQDTIASKDSVQAGQRINVPFPCDCIEGEFLGHTFQYDVQKGDRYDTIAGTNYANLTTVEWLRRFNSYPPDNIPDTGTLNVTVNCSCGDSGVGDYGLFVTYPLRPGETLGSVASNVKLDSALLQKYNPNVNFNQGSGIVYIPAKDQNGSYVLLGSSSGGLAGGAIAGIAAGVAVCLLLLAGFIYVGYFRKKRIQKEELLSQETRAIFPQDGKDENPRSTVNETPGPGGPAAMAGITVDKSVEFSYDELATATDNFSLANKIGQGGFGSVYYAELRGERAAIKKMDMQASKEFLAELKVLTRVHHLNLVRLIGYSIEGSLFLVYEFIENGNLSQHLRGSGRDPLPWATRVQIALDSARGLEYIHEHTVPVYIHRDIKSANILIDKNYRGKVADFGLTKLTEVGSSSLPTGRLVGTFGYMPPEYAQYGDVSPKVDVYAFGVVLYELISAKDAIVKTSESITDSKGLVALFEGVLSQPDPTEDLRKLVDQRLGDNYPVDSVRKMAQLAKACTQDNPQLRPSMRSIVVALMTLSSTTDDWDVGSFYENQNLVNLMSGR
On to B1, for which the “complementation (nodulation)” value in assay [2] was “zero nodulation”.
